Consider 22 molecules from ChEMBL document CHEMBL1149706, “Discovering benzamide derivatives as glycogen phosphorylase inhibitors and their binding site at the enzyme” (Bioorg Med Chem, 2007).

A short description of this assay: Inhibition of rabbit muscle GPa. The arrangement: species or system Oryctolagus cuniculus.
The molecule `O=C(Nc1nncs1)c1ccc(C(=O)Nc2nncs2)cc1` returned an IC50 of 269 µM.

As for `COc1cccc(NC(=O)c2cc(Sc3nccn3C)c(F)cc2N)c1`, half-maximal inhibition (IC50) was put at 166 µM.

On to `O=C(Nc1ccccn1)c1cccc(C(=O)Nc2ccccn2)c1`, for which 57.6 µM corresponded to half-maximal inhibition (IC50).

Turning to `O=C(Nc1ccccn1)c1cccc(C(=O)Nc2ccccn2)n1`, the IC50 was 425 µM.

For `Cn1ccnc1Sc1cc(C(=O)Nc2ccccc2)c(N)cc1F`, the half-maximal inhibitory concentration (IC50) is 215 µM.

`Cn1ccnc1Sc1cc(C(=O)Nc2ccc(C#N)cc2)c(N)cc1F` showed an IC50 of 96.1 µM.

The molecule `Cn1ccnc1Sc1cc(C(=O)Nc2cccc(F)c2)c(N)cc1F` gave an IC50 of 30.9 µM.

`Cn1ccnc1Sc1cc(C(=O)Nc2cccc(C(F)(F)F)c2)c(N)cc1F` showed an IC50 of 8.95 µM.

Consider `COc1ccccc1NC(=O)c1cc(Sc2nccn2C)c(F)cc1N`, for which the IC50 was 41.8 µM.

In the case of `O=C(Nc1nccs1)c1ccc(C(=O)Nc2nccs2)cc1`, the midpoint of inhibition, the IC50, lay at 337 µM.

As to `O=C(CN1CCN(c2ccccc2F)CC1)Nc1cccc(C(F)(F)F)c1`, the midpoint of inhibition, the IC50, lay at 78.5 µM.

For `COc1ccccc1N1CCN(CC(=O)Nc2cccc(C(F)(F)F)c2)CC1`, half-maximal inhibition (IC50) was put at 46.1 µM.

For `Cn1ccnc1Sc1cc(C(=O)NCc2ccccc2)c(N)cc1F`, the IC50 stood at 153 µM.

The molecule `O=C(CN1CCN(c2ccccc2)CC1)Nc1nccs1` gave an IC50 of 96.9 µM.

`COc1ccc(NC(=O)c2cc(Sc3nccn3C)c(F)cc2N)cc1`: half-maximal inhibition (IC50) was put at 107 µM.

In the case of `Cn1ccnc1Sc1cc(C(=O)Nc2ccccc2N)c(N)cc1F`, the IC50 is 95.3 µM.

In the case of `Cn1ccnc1Sc1cc(C(=O)Nc2cccc(N)c2)c(N)cc1F`, the IC50 came to 2.68 µM.

`Cn1ccnc1Sc1cc(C(=O)Nc2cccc(C#N)c2)c(N)cc1F` registered an IC50 of 9.87 µM.

As for `O=C(CN1CCN(c2ccccc2F)CC1)Nc1nccs1`, the IC50 is 35.8 µM.

As to `Cc1ccc(NC(=O)c2cc(Sc3nccn3C)c(F)cc2N)cc1`, inhibition was half-maximal at 70.1 µM (IC50).

In turn, `Cn1ccnc1Sc1cc(C(=O)Nc2ccccc2C#N)c(N)cc1F` registered an IC50 of 75.9 µM.

For the molecule `Cn1ccnc1Sc1cc(C(=O)Nc2ccc(N)cc2)c(N)cc1F`, the midpoint of inhibition, the IC50, lay at 91.1 µM.
